The target of the assay is T1, hP2X4 (human purinergic P2X receptor subtype 4) (Homo sapiens, UniProt Q99571).
T1 sequence (Q99571 1-404 isoform Q99571-2): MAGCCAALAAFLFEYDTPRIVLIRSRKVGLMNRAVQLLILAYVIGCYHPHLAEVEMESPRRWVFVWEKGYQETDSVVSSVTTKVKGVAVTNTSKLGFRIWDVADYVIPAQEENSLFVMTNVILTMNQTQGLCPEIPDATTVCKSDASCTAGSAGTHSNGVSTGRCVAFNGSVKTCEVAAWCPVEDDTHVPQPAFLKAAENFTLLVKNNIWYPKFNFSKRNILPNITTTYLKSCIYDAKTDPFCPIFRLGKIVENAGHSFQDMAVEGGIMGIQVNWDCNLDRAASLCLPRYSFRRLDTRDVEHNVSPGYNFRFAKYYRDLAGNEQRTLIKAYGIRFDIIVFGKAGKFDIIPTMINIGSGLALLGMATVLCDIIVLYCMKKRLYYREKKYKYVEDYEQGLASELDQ
To be noted: P2X4 IC50 (nM), HEK293 cells stably expressing hP2X4; agonist BZ-ATP 2.5 μM; FLIPR calcium.

SMILES strings stand for the structures.

Method: Cells at 400,000 cells/mL were seeded into a 384-well plate (10,000 cells/well) 18-24 h prior to the FLIPR experiment and then incubated overnight in a cell incubator. […] Each well was added with 20 μL of 0.5×Calcium 6 fluorescent dye (Molecular Devices, R8190) and then the cells were subjected to dye-loading incubation at 37° C. for 1.5 h. Each well was added with 10 μL of respective test compound (dissolved in DMSO at a concentration of 10 mM and serially diluted with buffer) or vehicle and the mixture was equilibrated for 30 min at room temperature.

`N#Cc1cc2c(S(N)(=O)=O)cc(NC(=O)Cc3ccccc3Cl)cc2cn1` [Compound 20, 2-(2-chlorophenyl)-N-(3-cyano-5-sulfamoylisoquinolin-7-yl)acetamide]: the IC50 is 10 to 50 nM. Then `NS(=O)(=O)c1cc(NC(=O)Cc2ccccc2Cl)cc2cc(Cl)ncc12` [Compound 59, N-(3-chloro-8-sulfamoylisoquinolin-6-yl)-2-(2-chlorophenyl)acetamide], with 50 to 200 nM; and `NS(=O)(=O)c1cc(NC(=O)Cc2ccccc2Cl)cc2c1CCN(C1COC1)C2` [Compound 123, 2-(2-chlorophenyl)-N-(2-(oxetan-3-yl)-5-sulfamoyl-1,2,3,4-tetrahydroisoquinolin-7-yl)acetamide], with 200 to 5000 nM. The same measure for `CC(C)N1CCc2c(cc(NC(=O)Cc3ccccc3Cl)cc2S(N)(=O)=O)C1` [Compound 113, 2-(2-chlorophenyl)-N-(2-isopropyl-5-sulfamoyl-1,2,3,4-tetrahydroisoquinolin-7-yl)acetamide]: 50 to 200 nM. The same measure for `COc1nccc2c(S(N)(=O)=O)cc(NC(=O)Cc3cc(F)c(F)cc3Cl)cc12` [Compound 27, 2-(2-chloro-4,5-difluorophenyl)-N-(1-methoxy-5-sulfamoylisoquinolin-7-yl)acetamide]: less than 10 nM; for `CN1CCN(c2cc3c(S(N)(=O)=O)cc(NC(=O)Cc4ccccc4Cl)cc3cn2)CC1=O` [Compound 80, 2-(2-chlorophenyl)-N-(3-(4-methyl-3-carbonylpiperazin-1-yl)-5-sulfamoylisoquinolin-7-yl)acetamide]: 50 to 200 nM.

In the case of `NS(=O)(=O)c1cc(NC(=O)Cc2ccccc2Cl)cc2cc(-n3ccnc3)ncc12` [Compound 50, N-(3-(1H-imidazol-1-yl)-8-sulfamoylisoquinolin-6-yl)-2-(2-chlorophenyl)acetamide], the IC50 was in the range of 200 to 5000 nM. Then `NS(=O)(=O)c1cc(NC(=O)Cc2ccccc2Cl)cc2ccnnc12` [Compound 41, 2-(2-chlorophenyl)-N-(8-sulfamoylcinnolin-6-yl)acetamide], with 50 to 200 nM; and `COc1nccc2c(S(C)(=N)=O)cc(NC(=O)Cc3ccccc3Cl)cc12` (stereo not shown) [Compound 53, 2-(2-chlorophenyl)-N-(1-methoxy-5-(S-methylsulfonimidoyl)isoquinolin-7-yl)acetamide], with 200 to 5000 nM; and `COc1nccc2c(S(N)(=O)=O)cc(NC(=O)Cc3ccccc3C#N)cc12` [Compound 64, 2-(2-cyanophenyl)-N-(1-methoxy-5-sulfamoylisoquinolin-7-yl)acetamide], with 200 to 5000 nM.

Regarding `NS(=O)(=O)c1cc(NC(=O)Cc2ccccc2Cl)cc2c1CCN(C(=O)Oc1ccccc1)C2` [Compound 105, phenyl 7-(2-(2-chlorophenyl)acetamido)-5-sulfamoyl-3,4-dihydroisoquinoline-2(1H)-carboxylate], the IC50 was 50 to 200 nM. Then `Cc1nccc2c(S(N)(=O)=O)cc(NC(=O)Cc3ccccc3Cl)cc12` [Compound 55], with 50 to 200 nM; and `COc1nccc2c(S(N)(=O)=O)cc(NC(=O)Cc3c(Cl)ccc(F)c3F)cc12` [Compound 54, 2-(6-chloro-2,3-difluorophenyl)-N-(1-methoxy-5-sulfamoylisoquinolin-7-yl)acetamide], with 200 to 5000 nM. With `NS(=O)(=O)c1cc(NC(=O)Cc2ccccc2Cl)cc2c1CCN(c1cc(Cl)c(F)cn1)C2` [Compound 118, N-(2-(4-chloro-5-fluoropyridin-2-yl)-5-sulfamoyl-1,2,3,4-tetrahydroisoquinolin-7-yl)-2-(2-chlorophenyl)acetamide], the IC50 is 50 to 200 nM. Then `CC(C)Nc1ccc2c(S(N)(=O)=O)cc(NC(=O)Cc3ccccc3Cl)cc2n1` [Compound 73, 2-(2-chlorophenyl)-N-(2-(isopropylamino)-5-sulfamoylquinolin-7-yl)acetamide], with 200 to 5000 nM; and `NS(=O)(=O)c1cc(NC(=O)Cc2ccccc2Cl)cc2c(=O)[nH]ccc12` [Compound 43, 2-(2-chlorophenyl)-N-(1-oxo-5-sulfamoyl-1,2-dihydroisoquinolin-7-yl)acetamide], with 200 to 5000 nM. Then `CN1CCN(c2ccc3c(S(N)(=O)=O)cc(NC(=O)Cc4ccccc4Cl)cc3n2)CC1=O` [Compound 70, 2-(2-chlorophenyl)-N-(2-(4-methyl-3-carbonylpiperazin-1-yl)-5-sulfamoylquinolin-7-yl)acetamide], with 50 to 200 nM; and `NS(=O)(=O)c1cc(NC(=O)Cc2ccccc2Cl)cc2c(OC3CCC3)nccc12` [Compound 11, 2-(2-chlorophenyl)-N-(1-cyclobutoxy-5-sulfamoylisoquinolin-7-yl)acetamide], with 10 to 50 nM; and `NS(=O)(=O)c1cc(NC(=O)Cc2ccccc2Cl)cc2c(OCF)nccc12` [Compound 61, 2-(2-chlorophenyl)-N-(1-(fluoromethoxy)-5-sulfamoylisoquinolin-7-yl)acetamide], with 50 to 200 nM.

For the molecule `COCCOc1cc2c(S(N)(=O)=O)cc(NC(=O)Cc3ccccc3Cl)cc2cn1` [Compound 84, 2-(2-chlorophenyl)-N-(3-(2-methoxyethoxy)-5-sulfamoylisoquinolin-7-yl)acetamide], the IC50 lay in the range of 50 to 200 nM. Then `NS(=O)(=O)c1cc(NC(=O)Cc2ccccc2Cl)cc2c1CCN(C1CC1)C2` [Compound 103, 2-(2-chlorophenyl)-N-(2-cyclopropyl-5-sulfamoyl-1,2,3,4-tetrahydroisoquinolin-7-yl)acetamide], with 10 to 50 nM; and `COc1nccc2c(S(N)(=O)=O)cc(NC(=O)Cc3ccc(Cl)cc3Cl)cc12` [Compound 92, 2-(2,4-dichlorophenyl)-N-(1-methoxy-5-sulfamoylisoquinolin-7-yl)acetamide], with 50 to 200 nM; and `NS(=O)(=O)c1cc(NC(=O)Cc2ccc(F)cc2Cl)cc2c1CCN(c1ccc(F)cn1)C2` [Compound 122], with 200 to 5000 nM. As to `NS(=O)(=O)c1cc(NC(=O)Cc2ccccc2Cl)cc2cncc(F)c12` [Compound 18, 2-(2-chlorophenyl)-N-(4-fluoro-5-sulfamoylisoquinolin-7-yl)acetamide], the IC50 lay within 50 to 200 nM. As to `COc1ccc2c(S(N)(=O)=O)cc(NC(=O)Cc3ccccc3Cl)cc2n1` [Compound 58, 2-(2-chlorophenyl)-N-(2-methoxy-5-sulfamoylquinolin-7-yl)acetamide], the IC50 was 50 to 200 nM. The same measure for `NS(=O)(=O)c1cc(NC(=O)Cc2ccccc2Cl)cc2c(Nc3ccc(F)cc3)nccc12` [Compound 52, 2-(2-chlorophenyl)-N-(1-((4-fluorophenyl)amino)-5-sulfamoylisoquinolin-7-yl)acetamide]: 200 to 5000 nM.

Regarding `CC(C)CCOc1nccc2c(S(N)(=O)=O)cc(NC(=O)Cc3ccccc3Cl)cc12` [Compound 15, 2-(2-chlorophenyl)-N-(1-(isopentyloxy)-5-sulfamoylisoquinolin-7-yl)acetamide], the IC50 lay in the range of 50 to 200 nM. Then `CN1CCN(c2ccc3c(S(N)(=O)=O)cc(NC(=O)Cc4ccccc4Cl)cc3n2)CC1` [Compound 69, 2-(2-chlorophenyl)-N-(2-(4-methylpiperazin-1-yl)-5-sulfamoylquinolin-7-yl)acetamide], with 200 to 5000 nM; and `COc1nccc2c(S(N)(=O)=O)cc(NC(=O)Cc3cccc(F)c3Cl)cc12` [Compound 97, 2-(2-chloro-3-fluorophenyl)-N-(1-methoxy-5-sulfamoylisoquinolin-7-yl)acetamide], with 50 to 200 nM; and `NS(=O)(=O)c1cc(NC(=O)Cc2ccccc2Cl)cc2c1CCN(C(=O)OC1CC1)C2` [Compound 101, cyclopropyl-7-(2-(2-chlorophenyl)acetamido)-5-sulfamoyl-3,4-dihydroisoquinoline-2(1H)-carboxylate], with 10 to 50 nM. Turning to `Nc1ncc2c(S(N)(=O)=O)cc(NC(=O)Cc3ccccc3Cl)cc2n1` [Compound 39, N-(2-amino-5-sulfamoylquinazolin-7-yl)-2-(2-chlorophenyl)acetamide], the IC50 lay within 200 to 5000 nM.

On to `NS(=O)(=O)c1cc(NC(=O)Cc2ccccc2Cl)cc2c(OC(F)F)nccc12` [Compound 28, 2-(2-chlorophenyl)-N-(1-(difluoromethoxy)-5-sulfamoylisoquinolin-7-yl)acetamide], for which the IC50 is less than 10 nM. The same measure for `N#Cc1nccc2c(S(N)(=O)=O)cc(NC(=O)Cc3ccccc3Cl)cc12` [Compound 44, 2-(2-chlorophenyl)-N-(1-cyano-5-sulfamoylisoquinolin-7-yl)acetamide]: 200 to 5000 nM; for `Nc1nccc2c(S(N)(=O)=O)cc(NC(=O)Cc3ccccc3Cl)cc12` [Compound 51, N-(1-amino-5-sulfamoylisoquinolin-7-yl)-2-(2-chlorophenyl)acetamide]: 200 to 5000 nM. The same measure for `COC(=O)N1CCCc2c1cc(NC(=O)Cc1ccccc1Cl)cc2S(N)(=O)=O` [Compound 46, methyl 7-(2-(2-chlorophenyl)acetamido)-5-sulfamoyl-3,4-dihydroquinoline-1(2H)-carboxylate]: 200 to 5000 nM.

On to `COc1nccc2c(S(N)(=O)=O)cc(NC(=O)Cc3c(F)cccc3Cl)cc12` [Compound 26, 2-(2-chloro-6-fluorophenyl)-N-(1-methoxy-5-sulfamoylisoquinolin-7-yl)acetamide], for which the IC50 was less than 10 nM.

As to `NS(=O)(=O)c1cc(NC(=O)Cc2ccccc2Cl)cc2c(Cl)cncc12` [Compound 48, N-(4-chloro-8-sulfamoylisoquinolin-6-yl)-2-(2-chlorophenyl)acetamide], the IC50 was in the range of 200 to 5000 nM.

Source of the values: patent US12692235B2, “Fused ring compound and application thereof” (WUHAN LL SCIENCE AND TECHNOLOGY DEVELOPMENT CO., LTD., priority 2019, dated 2026).
